Laboratory results published in PubChem BioAssay AID2060509 (Molecular Pharmacology Branch, DTP, NCI, 2025).

Tested on: 485176-168-R4-J1-PDC spheroids with HUVEC/MSC, viability
Test: Anticancer human tumor 485176-168-R4-J1-PDC patient-derived pancreatic adenocarcinoma cell line growth inhibition [GQUAD]
Details: for IC50: curve of first compound; for viability, T/C: stronger effect = lower value
Outline: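 Tumor cells were grown as complex spheroids with HUVEC endothelial cells and mesenchymal stem cells as stroma. G-quadruplex stabilizers were combined with targeted agents over half-log dilutions from near the clinical Cmax, or from 10 microM.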

[1] = second compound 0.0316 µM, first compound 0.0316 µM
[2] = second compound 0.0316 µM, first compound 0.1 µM
[3] = second compound 0.0316 µM, first compound 0.316 µM
[4] = second compound 0.0316 µM, first compound 1 µM
[5] = second compound 0.0316 µM, first compound 3.16 µM
[6] = second compound 0.0316 µM, first compound 10 µM
[7] = second compound 0.1 µM, first compound 0.0316 µM
[8] = second compound 0.1 µM, first compound 0.1 µM
[9] = second compound 0.1 µM, first compound 0.316 µM
[10] = second compound 0.1 µM, first compound 1 µM
[11] = second compound 0.1 µM, first compound 3.16 µM
[12] = second compound 0.1 µM, first compound 10 µM
[13] = second compound 0.316 µM, first compound 0.0316 µM
[14] = second compound 0.316 µM, first compound 0.1 µM
[15] = second compound 0.316 µM, first compound 0.316 µM
[16] = second compound 0.316 µM, first compound 1 µM
[17] = second compound 0.316 µM, first compound 3.16 µM
[18] = second compound 0.316 µM, first compound 10 µM
[19] = second compound 1 µM, first compound 0.0316 µM
[20] = second compound 1 µM, first compound 0.1 µM
[21] = second compound 1 µM, first compound 0.316 µM
[22] = second compound 1 µM, first compound 1 µM
[23] = second compound 1 µM, first compound 3.16 µM
[24] = second compound 1 µM, first compound 10 µM
[25] = second compound 3.16 µM, first compound 0.0316 µM
[26] = second compound 3.16 µM, first compound 0.1 µM
[27] = second compound 3.16 µM, first compound 0.316 µM
[28] = second compound 3.16 µM, first compound 1 µM
[29] = second compound 3.16 µM, first compound 3.16 µM
[30] = second compound 3.16 µM, first compound 10 µM
[31] = second compound 10 µM, first compound 0.0316 µM
[32] = second compound 10 µM, first compound 0.1 µM
[33] = second compound 10 µM, first compound 0.316 µM
[34] = second compound 10 µM, first compound 1 µM
[35] = second compound 10 µM, first compound 3.16 µM
[36] = second compound 10 µM, first compound 10 µM
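Also: spheroids exposed to compounds for seven days before readout.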
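For viability, T/C in this document: percent viability relative to DMSO vehicle control wells as 100%.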

O=C(c1cc(Cc2n[nH]c(=O)c3ccccc23)ccc1F)N1CCN(C(=O)C2CC2)CC1 + Cc1[nH]c2ccc(F)cc2c1-c1nc2c3cccnc3c3ncccc3c2[nH]1
IC50 (second compound 0.0316 µM): > 10000 nM
IC50 (second compound 0.1 µM): > 10000 nM
IC50 (second compound 0.316 µM): > 10000 nM
IC50 (second compound 1 µM): > 10000 nM
IC50 (second compound 3.16 µM): > 10000 nM
IC50 (second compound 10 µM): > 10000 nM
viability, T/C [1]: 99.9%
viability, T/C [2]: 75.3%
viability, T/C [3]: 85.6%
viability, T/C [4]: 80.5%
viability, T/C [5]: 91.2%
viability, T/C [6]: 69.9%
viability, T/C [7]: 82.6%
viability, T/C [8]: 93.9%
viability, T/C [9]: 90.3%
viability, T/C [10]: 106%
viability, T/C [11]: 83.2%
viability, T/C [12]: 74.9%
viability, T/C [13]: 93.8%
viability, T/C [14]: 90.5%
viability, T/C [15]: 94.6%
viability, T/C [16]: 95.6%
viability, T/C [17]: 77.8%
viability, T/C [18]: 77.3%
viability, T/C [19]: 92.8%
viability, T/C [20]: 78.9%
viability, T/C [21]: 88.1%
viability, T/C [22]: 86.4%
viability, T/C [23]: 101%
viability, T/C [24]: 68.8%
viability, T/C [25]: 91.4%
viability, T/C [26]: 89.2%
viability, T/C [27]: 85.3%
viability, T/C [28]: 77.6%
viability, T/C [29]: 88.1%
viability, T/C [30]: 62.5%
viability, T/C [31]: 78.5%
viability, T/C [32]: 85.3%
viability, T/C [33]: 70.4%
viability, T/C [34]: 77.1%
viability, T/C [35]: 80%
viability, T/C [36]: 57.5%

CC1COCCN1c1cc(-c2ccnn2C)c2ccnc(-c3ccn[nH]3)c2n1 (stereo unspecified) + Cc1[nH]c2ccc(F)cc2c1-c1nc2c3cccnc3c3ncccc3c2[nH]1
IC50 (second compound 0.0316 µM): 62 nM
IC50 (second compound 0.1 µM): 85.4 nM
IC50 (second compound 0.316 µM): 77.1 nM
IC50 (second compound 1 µM): 57.2 nM
IC50 (second compound 3.16 µM): 64.2 nM
IC50 (second compound 10 µM): 69.8 nM
viability, T/C [1]: 71.8%
viability, T/C [2]: 34.2%
viability, T/C [3]: 19.2%
viability, T/C [4]: 10.6%
viability, T/C [5]: 10.7%
viability, T/C [6]: 11.7%
viability, T/C [7]: 60.5%
viability, T/C [8]: 48.3%
viability, T/C [9]: 16.8%
viability, T/C [10]: 10.9%
viability, T/C [11]: 11.1%
viability, T/C [12]: 13.2%
viability, T/C [13]: 67%
viability, T/C [14]: 45%
viability, T/C [15]: 18.7%
viability, T/C [16]: 10.4%
viability, T/C [17]: 12.3%
viability, T/C [18]: 11.3%
viability, T/C [19]: 61.1%
viability, T/C [20]: 39.5%
viability, T/C [21]: 19.1%
viability, T/C [22]: 10.3%
viability, T/C [23]: 10.6%
viability, T/C [24]: 9.82%
viability, T/C [25]: 64.9%
viability, T/C [26]: 40.6%
viability, T/C [27]: 15.8%
viability, T/C [28]: 9.36%
viability, T/C [29]: 11.8%
viability, T/C [30]: 12%
viability, T/C [31]: 70.3%
viability, T/C [32]: 40.7%
viability, T/C [33]: 18.2%
viability, T/C [34]: 10.9%
viability, T/C [35]: 11.2%
viability, T/C [36]: 11.4%

CC(C)n1c(=O)n(C)c2cnc3cc(F)c(-c4ccc(OCCCN5CCCCC5)nc4)cc3c21 + Cc1cnc(CNC(=O)c2c(=O)c3ccc(N4CCCN(C)CC4)nc3n3c2sc2ccccc23)cn1
IC50 (second compound 0.0316 µM): > 10000 nM
IC50 (second compound 0.1 µM): < 31.6 nM
IC50 (second compound 0.316 µM): < 31.6 nM
IC50 (second compound 1 µM): < 31.6 nM
IC50 (second compound 3.16 µM): < 31.6 nM
IC50 (second compound 10 µM): < 31.6 nM
viability, T/C [1]: 65%
viability, T/C [2]: 50.2%
viability, T/C [3]: 63.1%
viability, T/C [4]: 59.2%
viability, T/C [5]: 62.2%
viability, T/C [6]: 61.2%
viability, T/C [7]: 40.2%
viability, T/C [8]: 47.4%
viability, T/C [9]: 35.6%
viability, T/C [10]: 50%
viability, T/C [11]: 49.2%
viability, T/C [12]: 47.5%
viability, T/C [13]: 39.6%
viability, T/C [14]: 36%
viability, T/C [15]: 30.4%
viability, T/C [16]: 33.5%
viability, T/C [17]: 34.5%
viability, T/C [18]: 41.3%
viability, T/C [19]: 27%
viability, T/C [20]: 30.2%
viability, T/C [21]: 34.2%
viability, T/C [22]: 34.5%
viability, T/C [23]: 30%
viability, T/C [24]: 34.7%
viability, T/C [25]: 36.1%
viability, T/C [26]: 34.3%
viability, T/C [27]: 33.5%
viability, T/C [28]: 34.7%
viability, T/C [29]: 29.5%
viability, T/C [30]: 25.6%
viability, T/C [31]: 27%
viability, T/C [32]: 27.7%
viability, T/C [33]: 28.9%
viability, T/C [34]: 28.2%
viability, T/C [35]: 25.2%
viability, T/C [36]: 24.5%
